Measurements taken from PMC7909954 (eLife, 2021).
Where two headings read alike, the source gives them in different places.

Key:
mMOR [1] = molecular target: T1, mMOR (Mus musculus, UniProt P42866); assay: cell-based
mDOR [2] = molecular target: T2, mDOR (Mus musculus, UniProt P32300); assay: cell-based
MOR [3] = molecular target: T3, MOR (Homo sapiens, UniProt P35372)
MOR [4] = molecular target: T3, MOR; assay: cell-based
rKOR [5] = molecular target: T4, rKOR (Rattus norvegicus, UniProt P34975)
T4 sequence (P34975 whole entry): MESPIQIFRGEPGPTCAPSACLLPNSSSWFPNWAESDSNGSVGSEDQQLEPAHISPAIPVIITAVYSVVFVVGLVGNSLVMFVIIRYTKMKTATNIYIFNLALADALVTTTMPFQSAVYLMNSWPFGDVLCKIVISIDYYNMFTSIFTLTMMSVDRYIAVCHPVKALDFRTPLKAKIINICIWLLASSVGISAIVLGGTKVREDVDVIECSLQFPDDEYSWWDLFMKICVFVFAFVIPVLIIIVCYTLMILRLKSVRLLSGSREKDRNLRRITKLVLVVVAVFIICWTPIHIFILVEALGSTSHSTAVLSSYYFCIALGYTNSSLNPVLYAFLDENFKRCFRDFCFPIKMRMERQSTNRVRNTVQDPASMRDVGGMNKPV

mMOR [6] = molecular target: T1, mMOR; assay: biochemical
DOR [7] = molecular target: T5, DOR (Homo sapiens, UniProt P41143); assay: cell-based
T5 sequence (P41143 whole entry): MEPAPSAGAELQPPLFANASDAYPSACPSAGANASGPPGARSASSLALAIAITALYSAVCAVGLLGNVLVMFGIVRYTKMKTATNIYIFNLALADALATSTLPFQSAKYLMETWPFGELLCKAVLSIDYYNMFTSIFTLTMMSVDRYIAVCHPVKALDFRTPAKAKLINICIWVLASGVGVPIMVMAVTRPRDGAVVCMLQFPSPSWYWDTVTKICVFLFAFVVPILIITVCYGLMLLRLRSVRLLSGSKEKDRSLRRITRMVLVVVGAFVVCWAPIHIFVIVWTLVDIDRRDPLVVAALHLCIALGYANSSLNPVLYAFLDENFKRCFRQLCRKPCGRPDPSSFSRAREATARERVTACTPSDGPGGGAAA

rKOR [8] = molecular target: T4, rKOR; assay: cell-based; conditions: HEK-293T, read-out: Emax% arrestin recruitment (BRET) rKOR
mKOR = mKOR (Mus musculus, UniProt P33534); assay: biochemical
Sequence of mKOR (P33534 whole entry): as the sequence (P34975 whole entry) above, with E11D, A17S, P51S, V308A counted along it

mMOR [9] = molecular target: T1, mMOR; assay: cell-based; design: expressed in transfected cells; host or cells: HEK-293T
DOR [10] = molecular target: T5, DOR; assay: cell-based; conditions: for EC50: Tango
KOR [11] = molecular target: T6, KOR (Homo sapiens, UniProt P41145); conditions: for Log RA cAMP hKOR / LogRA Tango hKOR: transduction coefficient log(T/KA)
T6 sequence (P41145 whole entry): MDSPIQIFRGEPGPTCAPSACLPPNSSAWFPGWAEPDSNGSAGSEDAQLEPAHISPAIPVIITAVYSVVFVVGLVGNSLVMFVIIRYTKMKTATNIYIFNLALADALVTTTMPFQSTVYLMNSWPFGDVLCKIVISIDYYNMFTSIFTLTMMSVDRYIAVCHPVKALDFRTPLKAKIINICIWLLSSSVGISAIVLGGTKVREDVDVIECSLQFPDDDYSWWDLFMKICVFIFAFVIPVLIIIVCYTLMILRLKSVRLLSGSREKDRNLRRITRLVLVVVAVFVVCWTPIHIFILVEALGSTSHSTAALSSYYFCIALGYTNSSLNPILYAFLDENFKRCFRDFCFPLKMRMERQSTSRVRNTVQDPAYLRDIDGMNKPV

mDOR [12] = molecular target: T2, mDOR; assay: cell-based; remark: listed apart in the source
mDOR [13] = molecular target: T2, mDOR; assay: biochemical
rKOR [14] = molecular target: T4, rKOR; assay: cell-based; conditions: HEK-293T, read-out: Emax% G protein activation (BRET) rKOR
KOR [15] = molecular target: T6, KOR; assay: cell-based; conditions: for EC50: EC50 arrestin recruitment (Tango) hKOR; for Emax: HTLA, read-out: Emax% arrestin recruitment (Tango) hKOR
KOR [16] = molecular target: T6, KOR; assay: cell-based; conditions: for EC50: EC50 cAMP inhibition hKOR; for Emax: HEK-293T, read-out: Emax% cAMP inhibition hKOR
MOR [17] = molecular target: T3, MOR; assay: cell-based; conditions: for Emax: HEK-293T, read-out: Emax% cAMP inhibition hMOR
MOR [18] = molecular target: T3, MOR; remark: listed apart in the source

T3 sequence (P35372 whole entry): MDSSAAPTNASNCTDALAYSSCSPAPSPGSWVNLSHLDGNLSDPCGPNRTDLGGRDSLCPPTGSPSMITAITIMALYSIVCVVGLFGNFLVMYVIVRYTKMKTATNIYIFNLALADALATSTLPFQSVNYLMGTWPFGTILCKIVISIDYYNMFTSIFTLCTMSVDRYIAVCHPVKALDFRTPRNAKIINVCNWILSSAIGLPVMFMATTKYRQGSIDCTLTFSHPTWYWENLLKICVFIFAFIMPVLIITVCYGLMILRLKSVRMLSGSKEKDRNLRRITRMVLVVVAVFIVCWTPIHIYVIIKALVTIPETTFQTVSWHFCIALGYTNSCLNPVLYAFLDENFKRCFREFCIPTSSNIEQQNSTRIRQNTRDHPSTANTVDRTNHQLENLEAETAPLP
T1 sequence (P42866 whole entry): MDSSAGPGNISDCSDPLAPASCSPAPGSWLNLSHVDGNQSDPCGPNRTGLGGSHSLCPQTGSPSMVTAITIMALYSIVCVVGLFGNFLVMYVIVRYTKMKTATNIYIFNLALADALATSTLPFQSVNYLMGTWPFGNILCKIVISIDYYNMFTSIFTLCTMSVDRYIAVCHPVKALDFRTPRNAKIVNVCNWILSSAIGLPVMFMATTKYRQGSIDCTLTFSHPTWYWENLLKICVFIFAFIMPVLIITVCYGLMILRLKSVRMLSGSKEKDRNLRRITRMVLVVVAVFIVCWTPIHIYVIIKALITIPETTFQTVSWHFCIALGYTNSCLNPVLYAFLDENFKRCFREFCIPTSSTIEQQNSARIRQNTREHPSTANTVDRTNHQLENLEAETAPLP
T2 sequence (P32300 whole entry): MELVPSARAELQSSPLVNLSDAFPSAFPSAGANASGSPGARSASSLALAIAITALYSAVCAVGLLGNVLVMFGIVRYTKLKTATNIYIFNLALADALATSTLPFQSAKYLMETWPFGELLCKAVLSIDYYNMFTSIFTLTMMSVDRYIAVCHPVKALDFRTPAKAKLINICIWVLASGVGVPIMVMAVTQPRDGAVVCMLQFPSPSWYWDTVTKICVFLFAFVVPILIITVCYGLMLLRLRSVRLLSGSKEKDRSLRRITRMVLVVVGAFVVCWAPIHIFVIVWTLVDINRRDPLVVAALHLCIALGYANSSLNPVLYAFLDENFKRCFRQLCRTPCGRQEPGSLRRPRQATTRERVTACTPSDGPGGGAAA

Compound: O=C(NC1CCC2(O)C3Cc4ccc(O)c5c4C2(CCN3CC2CC2)C1O5)c1cccc(I)c1 (stereo not drawn) [IBNtxA]
- EC50 (mMOR [1]; EC50 G protein activation (BRET) mMOR): 0.054 nM
- Emax (mMOR [1]; HEK-293T, read-out: Emax% G protein activation (BRET) mMOR): 59%
- EC50 (mDOR [2]; EC50 G protein activation (BRET) mDOR): 0.48 nM
- Emax (mDOR [2]; HEK-293T, read-out: Emax% G protein activation (BRET) mDOR): 108 ± 3.7%
- Bias factor (cAMP-Tango) hMOR (MOR [3]): 24
- Log RA cAMP hMOR (MOR [3]): 9.99±0.081
- LogRA Tango hMOR (MOR [3]): 7.572±0.25
- ΔlogRA Tango hMOR (MOR [3]): -0.25±0.25
- ΔlogRA cAMP hMOR (MOR [3]): 1.14±0.11
- ΔΔlog RA (cAMP-Tango) hMOR (MOR [3]): 1.38±0.28
- EC50 (MOR [4]): 5.86 nM
- Emax (MOR [4]; HTLA, read-out: Emax% arrestin recruitment (Tango) hMOR): 29 ± 0.02%
- Log RA BRET-G rKOR (rKOR [5]): 10.19±0.141
- LogRA BRET-Arr rKOR (rKOR [5]): 8.846±0.266
- ΔΔlog RA (BRETG-BRETArr) rKOR (rKOR [5]): -0.218±0.388
- ΔlogRA BRET-G rKOR (rKOR [5]; vs U50,488h): 2.64±0.175
- ΔlogRA BRET-arr rKOR (rKOR [5]; vs U50,488h): 2.858±0.346
- EC50 (mMOR [6]; EC50 mMOR [35S]GTPγS, ± SEM): 0.49 ± 0.12 nM
- Emax (mMOR [6]; read-out: Emax mMOR [35S]GTPγS): 101 ± 3%
- EC50 (DOR [7]; EC50 cAMP inhibition hDOR): 0.43 nM
- Emax (DOR [7]; HEK-293T, read-out: Emax% cAMP inhibition hDOR): 106 ± 1%
- EC50 (DOR [7]; pEC50 cAMP inhibition hDOR, ± SEM): 0.501 nM
- Emax (rKOR [8]): 133 ± 7.3%
- EC50 (mKOR; EC50 mKOR [35S]GTPγS, ± SEM): 0.22 ± 0.02 nM
- Emax (mKOR; read-out: Emax mKOR [35S]GTPγS): 102 ± 4%
- EC50 (mMOR [9]): 11300 nM
- Emax (mMOR [9]; HEK-293T, read-out: Emax% arrestin recruitment (BRET) mMOR): 75%
- EC50 (DOR [10]; EC50 arrestin recruitment hDOR): 14.1 nM
- Emax (DOR [10]; HTLA, read-out: Emax% arrestin recruitment hDOR): 224 ± 5%
- EC50 (DOR [10]; pEC50 arrestin recruitment hDOR, ± SEM): 15.8 nM
- ΔΔlog RA (cAMP-Tango) hKOR (KOR [11]): -1.002±0.052
- Bias factor (cAMP-Tango) hKOR (KOR [11]; >1 G protein bias, <1 arrestin bias, vs U50,488h): 0.1
- Log RA cAMP hKOR (KOR [11]): 11.59±0.036
- LogRA Tango hKOR (KOR [11]): 10.89±0.010
- ΔlogRA Tango hKOR (KOR [11]; vs U50,488h): 2.53±0.015
- ΔlogRA cAMP hKOR (KOR [11]; vs U50,488h): 1.53±0.050
- EC50 (mDOR [12]; EC50 arrestin recruitment (BRET) mDOR): 26.6 nM
- Emax (mDOR [12]; HEK-293T, read-out: Emax% arrestin recruitment (BRET) mDOR): 88 ± 6.8%
- EC50 (mDOR [12]; pEC50 arrestin recruitment (BRET) mDOR, ± SEM): 31.6 nM
- EC50 (mDOR [13]): 4.08 ± 0.67 nM
- Emax (mDOR [13]; read-out: Emax mDOR [35S]GTPγS): 95 ± 2%
- Emax (rKOR [14]): 101 ± 2.3%
- EC50 (KOR [15]): 0.013 nM
- Emax (KOR [15]): 109 ± 1.8%
- EC50 (KOR [16]; cell printed in pM): 2.46 pM
- Emax (KOR [16]): 101 ± 1.79%
- EC50 (MOR [17]; EC50 cAMP inhibition hMOR): 0.07 nM
- Emax (MOR [17]): 95 ± 2%

Compound: O=C(N[C@@H]1CC[C@H]2[C@H]3Cc4ccc(O)c5c4[C@@]2(CCN3CC2CC2)[C@H]1O5)c1cccc(CO)c1 [MP1210, N-((4R,4aR,7R,7aR,12bS)−3-(cyclopropylmethyl)−9-hydroxy-2,3,4,4a,5,6,7,7a-octahydro-1H-4,12-methano[1]benzofuro[3,2-e]isoquinolin-7-yl)−3-(hydroxymethyl)benzamide]
- arrestin recruitment at hMOR (in words) (MOR [18]): null arrestin recruitment
- ΔΔlog RA (cAMP-Tango) hKOR (KOR [11]): -0.28±0.19
- Log RA cAMP hKOR (KOR [11]): 10.59±0.06
- LogRA Tango hKOR (KOR [11]): 8.576±0.156
- ΔlogRA Tango hKOR (KOR [11]; vs U50,488h): 0.48±0.18
- ΔlogRA cAMP hKOR (KOR [11]; vs U50,488h): 0.2±0.081
- EC50 (KOR [15]): 1.16 nM
- Emax (KOR [15]): 63 ± 3.3%
- EC50 (KOR [16]): 25 pM
- Emax (KOR [16]): 101 ± 1.1%
- Emax (MOR [17]): 94.6 ± 0.98%
- EC50 (MOR [17]; pEC50 cAMP inhibition hMOR): 0.155 nM
